Experimental findings from PMC10718076, “1,2-Disubstituted bicyclo[2.1.1]hexanes as saturated bioisosteres of ortho-substituted benzene” (Chemical Science, 2023) are described below.

This data set can be described thus: Metabolic stability in human liver microsomes. To be noted: both; for microsomal CLint at 2 μM / microsomal CLint at 2 µM: pH 7.4; for remaining at 40 min, 2 µM: Mean of 2, 40 min; for remaining at 25 min, 2 µM: Mean of 2, 25 min. (Liver microsomes are vesicles of endoplasmic reticulum, rich in cytochrome P450 enzymes.)
Setting [1] is: human liver microsomes (pooled).
Setting [2] is: human liver microsomes (pooled), pH 7.4, % Remaining, Table S9, 4st batch.
Where [3] appears, read: liver microsomes (pooled), pH 7.4, % Remaining without cofactor, no NADPH cofactor, Table S6, 1st batch.
Where [4] appears, read: liver microsomes (pooled), pH 7.4, % Remaining, Mean of 2, 7 min, Table S6, 1st batch.
Where [5] appears, read: liver microsomes (pooled), pH 7.4, % Remaining, Mean of 2, 15 min, Table S6, 1st batch.
Where [6] appears, read: liver microsomes (pooled), pH 7.4, % Remaining, Table S6, 1st batch.
Where [7] appears, read: liver microsomes (pooled), pH 7.4, kel, Table S6, 1st batch.
Setting [8] is: liver microsomes (pooled), pH 7.4, t1/2, Table S6, 1st batch.

`Cn1cc(C(=O)Nc2ccc(F)cc2-c2ccc(Cl)c(Cl)c2)c(C(F)F)n1` [Bixafen, bixafen] gave a microsomal CLint at 2 μM under setting [1] of roughly 10 µL/min/mg. The share remaining at 40 min, 2 µM worked out at 101% (human liver microsomes (pooled), pH 7.4, % Remaining without cofactor, no NADPH cofactor, Table S9, 4st batch) and 87% under setting [2]. In addition, the fraction remaining at […], 2 µM reads like this: (human liver microsomes (pooled), pH 7.4, % Remaining, Mean of 2, 7 min, Table S9, 4st batch) 105%; (human liver microsomes (pooled), pH 7.4, % Remaining, Mean of 2, 15 min, Table S9, 4st batch) 97%. The amount remaining at 25 min, 2 µM under setting [2] is 93%. The molecule further gave a k el at 2 μM (human liver microsomes (pooled), pH 7.4, kel, Table S9, 4st batch, * approximate due to high stability) of roughly 6.67e-05 s⁻¹. The molecule further had a half-life at 2 µM (human liver microsomes (pooled), pH 7.4, t1/2, Table S9, 4st batch, * approximate due to high stability) of roughly 161 min.
With `O=C(NC1CC2CC1(c1ccc(Cl)cc1)C2)c1cccnc1Cl` (centres unmarked) [Compound 28], under setting [1], the microsomal CLint at 2 μM stood at 29 µL/min/mg. In addition, the amount remaining at 40 min, 2 µM reads like this: under setting [3], 116%; under setting [6], 61%. Besides, the amount remaining at […], 2 µM runs as follows: under setting [4], 88%; under setting [5], 82%. The amount remaining at 25 min, 2 µM under setting [6] was 72%. The molecule further showed a k el at 2 µM under setting [7] of 0.0002 s⁻¹. Further, under setting [8], the half-life at 2 µM was determined as 57.6 min.
`Cn1cc(C(=O)NC2CC3CC2(c2ccc(Cl)c(Cl)c2)C3)c(C(F)F)n1` (centres unmarked) [Compound 29] gave a microsomal CLint at 2 µM (liver microsomes (pooled)) of 35 µL/min/mg. Besides, the share remaining at 40 min, 2 µM runs as follows: under setting [3], 106%; under setting [6], 54%. Further, the amount remaining at […], 2 µM runs as follows: under setting [4], 83%; under setting [5], 73%. For the same molecule, under setting [6], the share remaining at 25 min, 2 µM worked out at 67%. The molecule also gave a k el at 2 µM under setting [7] of 0.00025 s⁻¹. The molecule further displayed a half-life at 2 µM under setting [8] of 47.4 min.
For `Cn1cc(C(=O)NC2CC3CC2(c2cc(F)c(F)c(F)c2)C3)c(C(F)F)n1` (centres unmarked) [Compound 30], the microsomal CLint at 2 µM (liver microsomes (pooled)) stood at 61 µL/min/mg. The fraction remaining at 40 min, 2 µM under setting [3] stood at 109% and the amount remaining at 40 min, 2 µM under setting [6] is 35%. Also, the amount remaining at […], 2 µM by setting is: under setting [4], 70%; under setting [5], 53%. Besides, the amount remaining at 25 min, 2 µM under setting [6] worked out at 43%. The molecule also showed a k el at 2 µM under setting [7] of 0.000417 s⁻¹. Also, the half-life at 2 µM under setting [8] was determined as 27.3 min.

For orientation: microsomal CLint means a measure of how fast metabolising enzymes remove a compound, apart from limits set by blood flow. Low readings indicate slow turnover, high ones rapid turnover. One may read the half-life as how long it takes for the measured level to halve. Lower therefore signals rapid decline.
